Converted amounts (≈) assume the structure as drawn.
What was measured:
Format in all cases: cell-based
[1] = test system: broad range of disease germs; experiment: Antimicrobial activities (general statement); details: statement in words
[2] = test system: Staphylococcus aureus 209p; experiment: Minimal inhibitory concentration, I A; details: read-out: Minimal inhibitory concentrations
Description: (§1) Minimal inhibitory concentrations of various microorganisms mcg/ml
*I A: Staphylococcus aureus 209p

[3] = test system: Staphylococcus aureus (CP and PC resistant); experiment: Minimal inhibitory concentration, I B; details: read-out: Minimal inhibitory concentrations
Description: as §1
I B: Staphylococcus aureus (CP and PC resistant)

[4] = test system: Klebsiella neumoniae 846 (CER resistant); experiment: Minimal inhibitory concentration, IV B; details: read-out: Minimal inhibitory concentrations
Description: as §1
IV B: Klebsiella neumoniae 846 (CER resistant)

[5] = test system: Shigella flexneri Komagome; experiment: Minimal inhibitory concentration, III; details: read-out: Minimal inhibitory concentrations
Description: as §1
III: Shigella flexneri Komagome

SMILES | anti-bacterial / antimicrobial activities [1] | further results
CO[C@@]1(NC(=O)CSc2ccon2)C(=O)N2C(C(=O)O)=C(COC(C)=O)CS[C@@H]21 [7β-(3-isoxazolyl)thioacetamido-7α-methoxy-3-acetoxymethyl-3-cephem 4-carboxylic acid] | excellent anti-bacterial activities against a broad range of disease germs | –
CO[C@@]1(NC(=O)CSc2nncs2)C(=O)N2C(C(=O)O)=C(COC(C)=O)CS[C@@H]21 [7β-(1,3,4-thiadiazol-2-yl)thioacetamido-7α-methoxy-3-acetoxymethyl-3-cephem-4-carboxylic acid] | excellent anti-bacterial activities against a broad range of disease germs | –
CO[C@@]1(NC(=O)CSc2nnc[nH]2)C(=O)N2C(C(=O)O)=C(COC(N)=O)CS[C@@H]21 [7β-(1,2,4-triazol-4H-3-yl)thioacetamido-7α-methoxy-3-carbamoyloxymethyl-3-cephem-4-carboxylic acid] | excellent anti-bacterial activities against a broad range of disease germs | –
CO[C@@]1(NC(=O)CSc2nncs2)C(=O)N2C(C(=O)O)=C(CSc3nnnn3C)CS[C@@H]21 [7β-(1,3,4-thiadiazol-2-yl)thioacetamido-7α-methoxy-3-(1-methyl-1H-tetrazol-5-yl)thiomethyl-3-cephem-4-carboxylic acid] | excellent anti-bacterial activities against a broad range of disease germs | –
CO[C@@]1(NC(=O)CSCC#N)C(=O)N2C(C(=O)O)=C(CSc3nnnn3C)CS[C@@H]21 [7β-cyanomethylthioacetamido-7α-methoxy-3-(1-methyl-1H-tetrazol-5-yl)thiomethyl-3-cephem-4-carboxylic acid] | excellent anti-bacterial activities against a broad range of disease germs | –
CO[C@@]1(NC(=O)CSc2ncc[nH]2)C(=O)N2C(C(=O)O)=C(COC(N)=O)CS[C@@H]21 [7β-(imidazol-2-yl)thioacetamido-7α-methoxy-3-carbamoyloxymethyl-3-cephem-4-carboxylic acid] | excellent anti-bacterial activities against a broad range of disease germs | –
CO[C@@]1(NC(=O)COc2ccon2)C(=O)N2C(C(=O)O)=C(COC(C)=O)CS[C@@H]21 [7β-(3-isoxazolyloxy)acetamido-7α-methoxy-3-acetoxymethyl-3-cephem-4-carboxylic acid] | excellent anti-bacterial activities against a broad range of disease germs | –
CO[C@@]1(NC(=O)CSCC#N)C(=O)N2C(C(=O)O)=C(COC(N)=O)CS[C@@H]21 [7β-cyanomethylthioacetamido-7α-methoxy-3-carbamoyloxymethyl-3-cephem-4-carboxylic acid] | excellent anti-bacterial activities against a broad range of disease germs | –
CO[C@@]1(NC(=O)CSc2nnc(C)s2)C(=O)N2C(C(=O)O)=C(CSc3nnnn3C)CS[C@@H]21 [7β-(5-methyl-1,3,4-thiadiazol-2-yl)thioacetamido-7α-methoxy-3-(1-methyl-1H-tetrazol-5-yl)thiomethyl-3-cephem-4-carboxylic acid] | excellent anti-bacterial activities against a broad range of disease germs | –
CO[C@@]1(NC(=O)CSCN=[N+]=[N-])C(=O)N2C(C(=O)O)=C(COC(C)=O)CS[C@@H]21 [7β-azidomethylthioacetamido-7α-methoxy-3-acetoxymethyl-3-cephem-4-carboxylic acid] | excellent anti-bacterial activities against a broad range of disease germs | –
C#CCSCC(=O)N[C@]1(OC)C(=O)N2C(C(=O)O)=C(CSc3nnnn3C)CS[C@@H]21 [7β-propargylthioacetamido-7α-methoxy-3-(1-methyl-1H-tetrazol-5-yl)thiomethyl-3-cephem-4-carboxylic acid] | excellent anti-bacterial activities against a broad range of disease germs | –
CO[C@@]1(NC(=O)CSc2nncs2)C(=O)N2C(C(=O)O)=C(COC(N)=O)CS[C@@H]21 [7β-(1,3,4-thiadiazol-2-yl)thioacetamido-7α-methoxy-3-carbamoyloxymethyl-3-cephem-4-carboxylic acid] | excellent anti-bacterial activities against a broad range of disease germs | –
C#CCSCC(=O)N[C@]1(OC)C(=O)N2C(C(=O)O)=C(COC(C)=O)CS[C@@H]21 [7β-propargylthioacetamido-7α-methoxy-3-acetoxymethyl-3-cephem-4-carboxylic acid] | excellent anti-bacterial activities against a broad range of disease germs | –
CO[C@@]1(NC(=O)CSc2nnc(C)s2)C(=O)N2C(C(=O)O)=C(COC(N)=O)CS[C@@H]21 [7β-(5-methyl-1,3,4-thiadiazol-2-yl)thioacetamido-7α-methoxy-3-carbamoyloxymethyl-3-cephem-4-carboxylic acid] | excellent anti-bacterial activities against a broad range of disease germs | –
CO[C@@]1(NC(=O)COc2ccon2)C(=O)N2C(C(=O)O)=C(CSc3nnnn3C)CS[C@@H]21 [7β-(3-isoxazolyloxy)acetamido-7α-methoxy-3-(1-methyl-1H-tetrazol-5-yl)thiomethyl-3-cephem-4-carboxylic acid] | excellent anti-bacterial activities against a broad range of disease germs | MIC [2]: 0.2 µg/mL (≈ 0.414 µM); MIC [3]: 0.8 µg/mL (≈ 1.65 µM); MIC [4]: > 400 µg/mL; MIC [5]: 3.1 µg/mL (≈ 6.41 µM)
CO[C@@]1(NC(=O)CSc2ncc[nH]2)C(=O)N2C(C(=O)O)=C(COC(C)=O)CS[C@@H]21 [7β-(imidazol-2-yl)thioacetamido-7α-methoxy-3-acetoxymethyl-3-cephem-4-carboxylic acid] | excellent anti-bacterial activities against a broad range of disease germs | –
C#CCSCC(=O)N[C@]1(OC)C(=O)N2C(C(=O)O)=C(COC(N)=O)CS[C@@H]21 [7β-propargylthioacetamido-7α-methoxy-3-carbamoyloxymethyl-3-cephem-4-carboxylic acid] | excellent anti-bacterial activities against a broad range of disease germs | –
CO[C@@]1(NC(=O)CSCC#N)C(=O)N2C(C(=O)O)=C(COC(C)=O)CS[C@@H]21 [7β-cyanomethylthioacetamido-7α-methoxy-3-acetoxymethyl-3-cephem-4-carboxylic acid] | excellent anti-bacterial activities against a broad range of disease germs | –
CO[C@@]1(NC(=O)CSc2ncc[nH]2)C(=O)N2C(C(=O)O)=C(CSc3nnnn3C)CS[C@@H]21 [7β-(imidazol-2-yl)thioacetamido-7α-methoxy-3-(1-methyl-1H-tetrazol-5-yl)thiomethyl-3-cephem-4-carboxylic acid] | excellent anti-bacterial activities against a broad range of disease germs | –
